Source: US10150760B2, “Compounds for use in preparing heterocyclic triazole agonists of the APJ receptor” (AMGEN INC., priority 2016, dated 2018)

target: human APJ receptor (Homo sapiens (Human), UniProt P35414); experiment: [35S]GTPγS binding assay on membranes from CHO cells stably expressing human APJ receptor; assay type: biochemical; settings: read-out: Activity hAPJ SPA EC50 IP
How it was run: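 Agonist-driven [35S]GTPγS (0.2 nM) binding was measured over 90 min at room temperature on human APJ-expressing CHO membranes with bead capture, in buffer containing 3 μM GDP, 200 mM NaCl and 5 mM MgCl2 (pH 7.5). Excess unlabelled GTPγS (100 μM) gave nonspecific signal; EC50 from non-linear fits.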

human APJ receptor, sequence (P35414 whole entry): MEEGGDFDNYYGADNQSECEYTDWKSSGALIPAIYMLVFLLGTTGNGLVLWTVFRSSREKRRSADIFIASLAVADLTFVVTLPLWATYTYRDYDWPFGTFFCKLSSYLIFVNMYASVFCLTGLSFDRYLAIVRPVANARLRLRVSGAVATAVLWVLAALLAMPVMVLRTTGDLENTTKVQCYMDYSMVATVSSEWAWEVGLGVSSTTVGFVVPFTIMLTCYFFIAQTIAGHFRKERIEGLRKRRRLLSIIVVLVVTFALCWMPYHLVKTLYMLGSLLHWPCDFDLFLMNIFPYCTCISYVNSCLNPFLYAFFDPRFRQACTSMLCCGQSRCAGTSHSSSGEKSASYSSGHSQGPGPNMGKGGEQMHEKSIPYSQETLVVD

Row | Compound | EC50
1 | COc1cccc(OC)c1-n1c(NS(=O)(=O)[C@@H](C)[C@H](C)c2ncc(Cl)cn2)nnc1C1COC1 [Example 36.0, (2S,3R)-3-(5-chloro-2-pyrimidinyl)-N-(4-(2,6-dimethoxyphenyl)-5-(3-oxetanyl)-4H-1,2,4-triazol-3-yl)-2-butanesulfonamide] | 140 nM
2 | CO[C@H](c1ncc(Cl)cn1)[C@H](C)S(=O)(=O)Nc1nnc([C@@H]2COCCO2)n1C1CCOCC1 (single isomer, unassigned) [Example 247.0, (1R,2S)-1-(5-chloro-2-pyrimidinyl)-N-(5-((2R)-1,4-dioxan-2-yl)-4-(tetrahydro-2H-pyran-4-yl)-4H-1,2,4-triazol-3-yl)-1-methoxy-2-propanesulfonamide or (1R,2S)-1-(5-chloro-2-pyrimidinyl)-N-(5-((2S)-1,4-dioxan-2-yl)-4-(tetrahydro-2H-pyran-4-yl)-4H-1,2,4-triazol-3-yl)-1-methoxy-2-propanesulfonamide] | 240 nM
3 | COc1cccc(OC)c1-n1c(NS(=O)(=O)[C@@H](C)[C@H](C)c2cnc(C)cn2)nnc1[C@H]1CCCCO1 (single isomer, unassigned) [Example 107.0, (2S,3R)-N-(4-(2,6-dimethoxyphenyl)-5-((S)-tetrahydro-2H-pyran-2-yl)-4H-1,2,4-triazol-3-yl)-3-(5-methylpyrazin-2-yl)butane-2-sulfonamide or (2S,3R)-N-(4-(2,6-dimethoxyphenyl)-5-((R)-tetrahydro-2H-pyran-2-yl)-4H-1,2,4-triazol-3-yl)-3-(5-methylpyrazin-2-yl)butane-2-sulfonamide] | 5.1 nM
4 | COCC(COC)n1c(NS(=O)(=O)[C@@H](C)[C@H](OC)c2ncc(Cl)cn2)nnc1[C@@H]1COCCO1 (single isomer, unassigned) [Example 251.0, (1R,2S)-1-(5-chloro-2-pyrimidinyl)-N-(4-(1,3-dimethoxy-2-propanyl)-5-((2R)-1,4-dioxan-2-yl)-4H-1,2,4-triazol-3-yl)-1-methoxy-2-propanesulfonamide or (1R,2S)-1-(5-chloro-2-pyrimidinyl)-N-(4-(1,3-dimethoxy-2-propanyl)-5-((2S)-1,4-dioxan-2-yl)-4H-1,2,4-triazol-3-yl)-1-methoxy-2-propanesulfonamide] | 750 nM
5 | COc1cccc(OC)c1-n1c(NS(=O)(=O)[C@H](C)[C@H](OC(C)C)c2cn3ccccc3n2)nnc1[C@H]1COCCO1 (single isomer, unassigned) [Example 266.0, (1R,2R)—N-(4-(2,6-dimethoxyphenyl)-5-((S)-1,4-dioxan-2-yl)-4H-1,2,4-triazol-3-yl)-1-(imidazo[1,2-a]pyridin-2-yl)-1-isopropoxypropane-2-sulfonamide or (1S,2S)—N-(4-(2,6-dimethoxyphenyl)-5-((S)-1,4-dioxan-2-yl)-4H-1,2,4-triazol-3-yl)-1-(imidazo[1,2-a]pyridin-2-yl)-1-isopropoxypropane-2-sulfonamide] | 150 nM
6 | COc1ncnc(OC)c1-n1c(NS(=O)(=O)[C@@H](C)[C@@H](OC(C)C)c2ncc(Cl)cn2)nnc1[C@H]1CCC(C)(C)O1 (single isomer, unassigned) [Example 279.0, (1S,2S)-1-(5-chloropyrimidin-2-yl)-N-(4-(4,6-dimethoxypyrimidin-5-yl)-5-((R)-5,5-dimethyltetrahydrofuran-2-yl)-4H-1,2,4-triazol-3-yl)-1-isopropoxypropane-2-sulfonamide or (1S,2S)-1-(5-chloropyrimidin-2-yl)-N-(4-(4,6-dimethoxypyrimidin-5-yl)-5-((S)-5,5-dimethyltetrahydrofuran-2-yl)-4H-1,2,4-triazol-3-yl)-1-isopropoxypropane-2-sulfonamide] | 0.68 nM
7 | (1R,2S)-1-(5-chloropyrimidin-2-yl)-N-(5-((R)-2,3-dihydrobenzo[b][1,4]dioxin-2-yl)-4-(2,6-dimethoxyphenyl)-4H-1,2,4-triazol-3-yl)-1-methoxypropane-2-sulfonamide or (1R,2S)-1-(5-chloropyrimidin-2-yl)-N-(5-((S)-2,3-dihydrobenzo[b][1,4]dioxin-2-yl)-4-(2,6-dimethoxyphenyl)-4H-1,2,4-triazol-3-yl)-1-methoxypropane-2-sulfonamide [Example 259.0] | 88 nM
8 | COc1cccc(OC)c1-n1c(NS(=O)(=O)[C@@H](C)[C@H](C)c2ncc(Cl)cn2)nnc1[C@H]1CCCOC1 (single isomer, unassigned) [Example 62.0, (2S,3R)-3-(5-chloropyrimidin-2-yl)-N-(4-(2,6-dimethoxyphenyl)-5-((R)-tetrahydro-2H-pyran-3-yl)-4H-1,2,4-triazol-3-yl)butane-2-sulfonamide or (2S,3R)-3-(5-chloropyrimidin-2-yl)-N-(4-(2,6-dimethoxyphenyl)-5-((S)-tetrahydro-2H-pyran-3-yl)-4H-1,2,4-triazol-3-yl)butane-2-sulfonamide] | 26 nM
9 | (1R,2S)-N-(4-(1,3-dimethoxy-2-propanyl)-5-((2R,5R)-5-methyltetrahydro-2-furanyl)-4H-1,2,4-triazol-3-yl)-1-methoxy-1-(5-methoxy-2-pyrazinyl)-2-propanesulfonamide or (1R,2S)-N-(4-(1,3-dimethoxy-2-propanyl)-5-((2S,5S)-5-methyltetrahydro-2-furanyl)-4H-1,2,4-triazol-3-yl)-1-methoxy-1-(5-methoxy-2-pyrazinyl)-2-propanesulfonamide [Example 378.0] | 170 nM
10 | (1R,2S)-N-(5-((S)-1,4-dioxan-2-yl)-4-(1-(methoxymethyl)cyclopropyl)-4H-1,2,4-triazol-3-yl)-1-(5-chloropyrimidin-2-yl)-1-methoxypropane-2-sulfonamide or (1R,2S)-N-(5-((R)-1,4-dioxan-2-yl)-4-(1-(methoxymethyl)cyclopropyl)-4H-1,2,4-triazol-3-yl)-1-(5-chloropyrimidin-2-yl)-1-methoxypropane-2-sulfonamide [Example 341.0] | 1210 nM
11 | (2S,3R)-N-(4-(2,6-dimethoxyphenyl)-5-((S)-tetrahydrothiophen-2-yl)-4H-1,2,4-triazol-3-yl)-3-(5-methylpyrimidin-2-yl)butane-2-sulfonamide or (2S,3R)-N-(4-(2,6-dimethoxyphenyl)-5-((R)-tetrahydrothiophen-2-yl)-4H-1,2,4-triazol-3-yl)-3-(5-methylpyrimidin-2-yl)butane-2-sulfonamide [Example 223.0] | 12 nM
12 | COc1ncnc(OC)c1-n1c(NS(=O)(=O)[C@@H](C)[C@H](C)c2ncc(F)cn2)nnc1[C@@H]1COCCO1 (single isomer, unassigned) [Example 277.0, (2S,3R)-N-(4-(4,6-dimethoxypyrimidin-5-yl)-5-((R)-1,4-dioxan-2-yl)-4H-1,2,4-triazol-3-yl)-3-(5-fluoropyrimidin-2-yl)butane-2-sulfonamide or (2S,3R)-N-(4-(4,6-dimethoxypyrimidin-5-yl)-5-((S)-1,4-dioxan-2-yl)-4H-1,2,4-triazol-3-yl)-3-(5-fluoropyrimidin-2-yl)butane-2-sulfonamide] | 23 nM
